From the supplement of paper PMC10307832

How the values were obtained:
Assay in all cases: relative viability (nuclei count vs DMSO), 5 days (fraction); higher = more cells survive
HCC-15 = test system: HCC-15
Procedure, shortened: (§1)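 Lung cancer cell lines in 1536-well plates got either a single drug or a fixed anchor-drug dose together with five library-drug doses (not always all listed) in √10 steps, by pin tool, on the day after seeding. Nuclei were counted after 5 days, and relative viability is the treated-to-vehicle ratio of nuclei counts. Values are medians of duplicate plates.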

SK-MES-1 = test system: SK-MES-1
Procedure, shortened: as §1

NCI-H1755 = test system: NCI-H1755
Procedure, shortened: as §1

NCI-H2347 = test system: NCI-H2347
Procedure, shortened: as §1

NCI-H2009 = test system: NCI-H2009
Procedure, shortened: as §1

HARA = test system: HARA
Procedure, shortened: as §1

COR-L 105 = test system: COR-L 105
Procedure, shortened: as §1

NCI-H2228 = test system: NCI-H2228
Procedure, shortened: as §1

COR-L23 = test system: COR-L23
Procedure, shortened: as §1

NCI-H1793 = test system: NCI-H1793
Procedure, shortened: as §1

NCI-H1355 = test system: NCI-H1355
Procedure, shortened: as §1

NCI-H1993 = test system: NCI-H1993
Procedure, shortened: as §1

EKVX = test system: EKVX
Procedure, shortened: as §1

PC-14 = test system: PC-14
Procedure, shortened: as §1

UMC-11 = test system: UMC-11
Procedure, shortened: as §1

NCI-H1734 = test system: NCI-H1734
Procedure, shortened: as §1

NCI-H358 = test system: NCI-H358
Procedure, shortened: as §1

HOP-62 = test system: HOP-62
Procedure, shortened: as §1

NCI-H1395 = test system: NCI-H1395
Procedure, shortened: as §1

NCI-H838 = test system: NCI-H838
Procedure, shortened: as §1

NCI-H647 = test system: NCI-H647
Procedure, shortened: as §1

CC1(C)CCC(c2ccc(Cl)cc2)=C(CN2CCN(c3ccc(C(=O)NS(=O)(=O)c4ccc(N[C@H](CCN5CCOCC5)CSc5ccccc5)c(S(=O)(=O)C(F)(F)F)c4)cc3)CC2)C1 [Navitoclax] + C[C@]1(O)C[C@@H](c2nc(-c3ccc4ccc(-c5ccccc5)nc4c3)c3c(N)nccn32)C1 [Linsitinib] (partner 1 µM)
relative viability (HCC-15; first compound 0.005 µM): 0.819 | relative viability (HCC-15; first compound 0.01581 µM): 0.97 | relative viability (HCC-15; first compound 0.05 µM): 0.783 | relative viability (HCC-15; first compound 0.1581 µM): 0.842 | relative viability (HCC-15; first compound 0.5 µM): 0.843 | relative viability (SK-MES-1; first compound 0.005 µM): 1.03 | relative viability (SK-MES-1; first compound 0.01581 µM): 1.19 | relative viability (SK-MES-1; first compound 0.05 µM): 1.19 | relative viability (SK-MES-1; first compound 0.1581 µM): 1.02 | relative viability (SK-MES-1; first compound 0.5 µM): 1.1 | relative viability (NCI-H1755; first compound 0.005 µM): 0.969 | relative viability (NCI-H1755; first compound 0.01581 µM): 0.993 | relative viability (NCI-H1755; first compound 0.05 µM): 0.954 | relative viability (NCI-H1755; first compound 0.1581 µM): 0.968 | relative viability (NCI-H1755; first compound 0.5 µM): 1.02 | relative viability (NCI-H2347; first compound 0.005 µM): 0.94 | relative viability (NCI-H2347; first compound 0.01581 µM): 1.03 | relative viability (NCI-H2347; first compound 0.05 µM): 0.876 | relative viability (NCI-H2347; first compound 0.1581 µM): 0.954 | relative viability (NCI-H2347; first compound 0.5 µM): 0.973 | relative viability (NCI-H2009; first compound 0.005 µM): 1.08 | relative viability (NCI-H2009; first compound 0.01581 µM): 1.25 | relative viability (NCI-H2009; first compound 0.05 µM): 1.16 | relative viability (NCI-H2009; first compound 0.1581 µM): 1.18 | relative viability (NCI-H2009; first compound 0.5 µM): 1.31 | relative viability (HARA; first compound 0.005 µM): 0.833 | relative viability (HARA; first compound 0.01581 µM): 1.16 | relative viability (HARA; first compound 0.05 µM): 0.749 | relative viability (HARA; first compound 0.1581 µM): 0.918 | relative viability (HARA; first compound 0.5 µM): 0.861 | relative viability (COR-L 105; first compound 0.005 µM): 0.937 | relative viability (COR-L 105; first compound 0.01581 µM): 1.02 | relative viability (COR-L 105; first compound 0.05 µM): 1.05 | relative viability (COR-L 105; first compound 0.1581 µM): 1.09 | relative viability (COR-L 105; first compound 0.5 µM): 0.979 | relative viability (NCI-H2228; first compound 0.005 µM): 0.877 | relative viability (NCI-H2228; first compound 0.01581 µM): 0.81 | relative viability (NCI-H2228; first compound 0.05 µM): 0.623 | relative viability (NCI-H2228; first compound 0.1581 µM): 0.626 | relative viability (NCI-H2228; first compound 0.5 µM): 0.639 | relative viability (COR-L23; first compound 0.005 µM): 0.874 | relative viability (COR-L23; first compound 0.01581 µM): 0.991 | relative viability (COR-L23; first compound 0.05 µM): 0.97 | relative viability (COR-L23; first compound 0.1581 µM): 0.853 | relative viability (COR-L23; first compound 0.5 µM): 0.88 | relative viability (NCI-H1793; first compound 0.005 µM): 0.97 | relative viability (NCI-H1793; first compound 0.01581 µM): 1.17 | relative viability (NCI-H1793; first compound 0.05 µM): 0.643 | relative viability (NCI-H1793; first compound 0.1581 µM): 0.834 | relative viability (NCI-H1793; first compound 0.5 µM): 0.766 | relative viability (NCI-H1355; first compound 0.005 µM): 0.831 | relative viability (NCI-H1355; first compound 0.01581 µM): 0.892 | relative viability (NCI-H1355; first compound 0.05 µM): 0.817 | relative viability (NCI-H1355; first compound 0.1581 µM): 0.775 | relative viability (NCI-H1355; first compound 0.5 µM): 0.834 | relative viability (NCI-H1993; first compound 0.005 µM): 0.721 | relative viability (NCI-H1993; first compound 0.01581 µM): 0.752 | relative viability (NCI-H1993; first compound 0.05 µM): 0.706 | relative viability (NCI-H1993; first compound 0.1581 µM): 0.672 | relative viability (NCI-H1993; first compound 0.5 µM): 0.675 | relative viability (EKVX; first compound 0.005 µM): 0.953 | relative viability (EKVX; first compound 0.01581 µM): 1.28 | relative viability (EKVX; first compound 0.05 µM): 0.954 | relative viability (EKVX; first compound 0.1581 µM): 0.953 | relative viability (EKVX; first compound 0.5 µM): 1.01 | relative viability (PC-14; first compound 0.005 µM): 1.03 | relative viability (PC-14; first compound 0.01581 µM): 1.04 | relative viability (PC-14; first compound 0.05 µM): 1.07 | relative viability (PC-14; first compound 0.1581 µM): 0.926 | relative viability (PC-14; first compound 0.5 µM): 0.977 | relative viability (UMC-11; first compound 0.005 µM): 0.97 | relative viability (UMC-11; first compound 0.01581 µM): 1.03 | relative viability (UMC-11; first compound 0.1581 µM): 1.01 | relative viability (UMC-11; first compound 0.5 µM): 0.893 | relative viability (NCI-H1734; first compound 0.005 µM): 0.834 | relative viability (NCI-H1734; first compound 0.01581 µM): 0.948 | relative viability (NCI-H1734; first compound 0.1581 µM): 0.797 | relative viability (NCI-H1734; first compound 0.5 µM): 0.857 | relative viability (NCI-H358; first compound 0.005 µM): 0.763 | relative viability (NCI-H358; first compound 0.01581 µM): 0.956 | relative viability (NCI-H358; first compound 0.05 µM): 0.813 | relative viability (NCI-H358; first compound 0.1581 µM): 0.898 | relative viability (NCI-H358; first compound 0.5 µM): 0.822 | relative viability (HOP-62; first compound 0.005 µM): 0.976 | relative viability (HOP-62; first compound 0.01581 µM): 0.871 | relative viability (HOP-62; first compound 0.05 µM): 0.955 | relative viability (HOP-62; first compound 0.1581 µM): 0.767 | relative viability (HOP-62; first compound 0.5 µM): 0.923 | relative viability (NCI-H1395; first compound 0.005 µM): 0.938 | relative viability (NCI-H1395; first compound 0.01581 µM): 1.34 | relative viability (NCI-H1395; first compound 0.05 µM): 1.08 | relative viability (NCI-H1395; first compound 0.1581 µM): 1.13 | relative viability (NCI-H1395; first compound 0.5 µM): 1.27 | relative viability (NCI-H838; first compound 0.005 µM): 0.89 | relative viability (NCI-H838; first compound 0.01581 µM): 1.11 | relative viability (NCI-H838; first compound 0.05 µM): 1.12 | relative viability (NCI-H838; first compound 0.1581 µM): 1.03 | relative viability (NCI-H838; first compound 0.5 µM): 1.03 | relative viability (NCI-H647; first compound 0.005 µM): 1.05 | relative viability (NCI-H647; first compound 0.01581 µM): 1.12 | relative viability (NCI-H647; first compound 0.05 µM): 1.23 | relative viability (NCI-H647; first compound 0.1581 µM): 1.17 | relative viability (NCI-H647; first compound 0.5 µM): 1.05
